Test results from patent US8507533B2, “Glucagon receptor modulators” (Pfizer Inc., priority 2011, dated 2013).

biological target: human glucagon receptor (Homo sapiens (Human), UniProt P47871); experiment: Glucagon cAMP Assay (Cisbio cAMP detection); type: cell-based; conditions: CHOK1 cells stably transfected with the human glucagon receptor; block of glucagon induced cAMP production; Kb by modified Cheng-Prusoff equation
Protocol: The Cisbio cAMP detection assay is used to determine the ability of punitive glucagon antagonist to block glucagon induced cAMP production. Potential glucagon antagonists are re-suspended and diluted in 100% DMSO. Prior to use in the Glucagon cAMP assay 100×DMSO compound stocks are diluted 20× with DMEM-F12 media (Invitrogen) containing either 0.1% or 4% BSA. […] 2 μls of 5% DMSO or known glucagon antagonist are added to each plate to define the assay window. CHOK1 cells stably transfected with the human glucagon receptor are removed from culture flasks with cell dissociation buffer. Cell pellets are re-suspended, at a concentration of 8.3e^5 cells/ml in DMEM-F12 with or without 4% BSA and 200 uM IBMX. 6 μls of cell suspensions are added to the assay plates. Plates are incubated for 20 min at room temperature prior to the addition of a 100 μM challenge dose of glucagon. On a separate plate glucagon dose response curves are run to determine the EC50 of glucagon. After a 30 min room temperature incubation the reaction is terminated by the addition of lysis buffer containing the cAMP detection reagents. Plates are incubated for an additional 60 min at room temperature prior to being read on the Perkin Elmer fluorescent plate reader. Raw is converted to nM of cAMP produced based on a cAMP standard curve. Converted data is then analyzed using the Pfizer data analysis program. IC50 values are determined from the generated sigmoidal dose response curves. Kb values are calculated using a modified Cheng-Prusoff equation. N is the number of times the compound was assayed.

Chain of human glucagon receptor (P47871 26-477): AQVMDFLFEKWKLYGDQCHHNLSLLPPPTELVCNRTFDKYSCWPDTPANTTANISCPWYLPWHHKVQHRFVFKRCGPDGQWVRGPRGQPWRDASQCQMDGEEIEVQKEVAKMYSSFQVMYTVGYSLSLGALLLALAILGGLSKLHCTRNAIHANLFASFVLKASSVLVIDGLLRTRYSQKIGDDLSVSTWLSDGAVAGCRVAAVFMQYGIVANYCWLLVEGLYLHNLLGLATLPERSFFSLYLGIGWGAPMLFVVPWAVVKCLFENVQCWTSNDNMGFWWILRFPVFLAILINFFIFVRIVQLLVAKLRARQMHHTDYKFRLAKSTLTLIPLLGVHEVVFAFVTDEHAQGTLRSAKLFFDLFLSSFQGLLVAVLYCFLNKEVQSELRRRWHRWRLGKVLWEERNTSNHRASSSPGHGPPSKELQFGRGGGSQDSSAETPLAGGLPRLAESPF

Row | SMILES | Kb [nM]
1 | CCCC(Nc1ccc(-n2cc(-c3ccccc3)cn2)nc1)c1ccc(C(=O)NCCC(=O)O)cc1 (racemic) [Example 62, (+/−)-3-(4-(1-(6-(4-phenyl-1H-pyrazol-1-yl)pyridine-3-ylamino)butyl)benzamido)propanoic acid] | 32.2
2 | CC(C)CC(Nc1ccc(C(=O)NCCC(=O)O)cn1)c1ccc(-n2cc(C(F)(F)F)cn2)cc1 (racemic) [Example 64, (+/−)-3-(6-(3-methyl-1-(4-(4-(trifluoromethyl)-1H-pyrazol-1-yl)phenyl)butylamino)nicotinamido)propanoic acid] | 494
3 | O=C(O)CCNC(=O)c1ccc(C(CC2CC2)Oc2ccc(-n3cc(C(F)(F)F)cn3)cc2)cc1 (racemic) [Example 65, (+/−)-3-(4-(2-cyclopropyl-1-(4-(4-(trifluoromethyl)-1H-pyrazol-1-yl)phenoxy)ethyl)benzamido)propanoic acid] | 2880
4 | CCCC(Oc1ccc(-n2cc(C(F)(F)F)cn2)cn1)c1ccc(C(=O)NCCC(=O)O)cc1 (racemic) [Example 85, (+/−)-3-(4-(1-(5-(4-(trifluoromethyl)-1H-pyrazol-1-yl)pyridine-2-yloxy)butyl)benzamido)propanoic acid] | 4140
5 | CCCC(Nc1ccc(-n2cc(C)nn2)cc1)c1ccc(C(=O)NCCC(=O)O)cc1 (racemic) [Example 92, (+/−)-3-(4-(1-(4-(4-methyl-1H-1,2,3-triazol-1-yl)phenylamino)butyl)benzamido)propanoic acid] | 5600
6 | CC(C)CC(Nc1ncc(C(=O)NCCC(=O)O)cn1)c1ccc(-n2cc(C(F)(F)F)cn2)cc1 (racemic) [Example 93, (+/−)-3-(2-(3-methyl-1-(4-(4-(trifluoromethyl)-1H-pyrazol-1-yl)phenyl)butylamino)pyrimidine-5-carboxamido)propanoic acid] | 3840
7 | O=C(O)CCNC(=O)c1ccc(C(Nc2ccc(-n3cc(C(F)(F)F)cn3)nc2)C2CCCC2)cc1 (racemic) [Example 94, (+/−)-3-(4-(cyclopentyl(6-(4-(trifluoromethyl)-1H-pyrazol-1-yl)pyridine-3-ylamino)methyl)benzamido)propanoic acid] | 57.5
8 | O=C(O)CCNC(=O)c1ccc(NC(c2ccc(-n3cc(C(F)(F)F)cn3)cc2)C2CCCCC2)nc1 (racemic) [Example 99] | 376
9 | CC(C)(C)CC(Nc1ccc(-n2cnc(C(F)(F)F)c2)nc1)c1ccc(C(=O)NCCC(=O)O)cc1 (racemic) [Example 100, (+/−)-3-(4-(3,3-dimethyl-1-(6-(4-(trifluoromethyl)-1H-imidazol-1-yl)pyridine-3-ylamino)butyl)benzamido)propanoic acid] | 226
10 | Cc1cc(NC(CC(C)C)c2ccc(C(=O)NCCC(=O)O)cn2)cnc1-n1cc(C(F)(F)F)cn1 (racemic) [Example 102, (+/−)-3-(6-(3-methyl-1-(5-methyl-6-(4-(trifluoromethyl)-1H-pyrazol-1-yl)pyridin-3-ylamino)butyl)nicotinamido)propanoic acid] | 3540
11 | O=C(O)CCNC(=O)c1ccc(C(Nc2ccc(-n3cc(C(F)(F)F)cn3)nc2)C2CCCC2)cc1 (single isomer, unassigned) [Example 95, 3-(4-(cyclopentyl(6-(4-(trifluoromethyl)-1H-pyrazol-1-yl)pyridine-3-ylamino)methyl)benzamido)propanoic acid] | 32.8
12 | O=C(O)CCNC(=O)c1ccc(C(Nc2ccc(-n3cc(C(F)(F)F)cn3)nc2)C2CCCC2)cc1 (single isomer, unassigned) [Example 96, 3-(4-(cyclopentyl(6-(4-(trifluoromethyl)-1H-pyrazol-1-yl)pyridine-3-ylamino)methyl)benzamido)propanoic acid] | 871
13 | Cc1cc(-n2cc(C(F)(F)F)cn2)ccc1C(Nc1ccc(C(=O)NCCC(=O)O)cn1)C1CCCCC1 (single isomer, unassigned) [Example 117, 3-(6-(cyclohexyl(2-methyl-4-(4-(trifluoromethyl)-1H-pyrazol-1-yl)phenyl)methylamino)nicotinamido)propanoic acid] | 227
14 | Cc1cc(-n2cc(C(F)(F)F)cn2)ccc1C(Nc1ccc(C(=O)NCCC(=O)O)cn1)C1CCCCC1 (single isomer, unassigned) [Example 118, 3-(6-(cyclohexyl(2-methyl-4-(4-(trifluoromethyl)-1H-pyrazol-1-yl)phenyl)methylamino)nicotinamido)propanoic acid] | 1020
15 | CCCC(Nc1ccc(-n2cnc(C(F)(F)F)c2)nc1)c1ccc(C(=O)NCCC(=O)O)cc1 (single isomer, unassigned; isomer 1) [Example 10, 3-(4-(1-(6-(4-(trifluoromethyl)-1H-imidazol-1-yl)yridine-3-ylamino)butyl)benzamido)propanoic acid, Isomer 1] | 15500
16 | CCCC(Nc1ccc(-n2cnc(C(F)(F)F)c2)nc1)c1ccc(C(=O)NCCC(=O)O)cc1 (single isomer, unassigned; isomer 2) [Example 11, 3-(4-(1-(6-(4-(trifluoromethyl)-1H-imidazol-1-yl)yridine-3-ylamino)butyl)benzamido)propanoic acid, Isomer 2] | 612

Further lines, results first:

Row | Kb [nM] | SMILES
17 | 3530 | CCCC(Oc1ccc(-c2cnn(C)c2)cc1)c1ccc(C(=O)NCCC(=O)O)cc1 (racemic) [Example 54, (+/−)-3-(4-(1-(4-(1-methyl-1H-pyrazol-4-yl)phenoxy)butyl)benzamido)propanoic acid]
18 | 3720 | CCCC(Oc1ccc(-c2cnn(C)c2C)cc1)c1ccc(C(=O)NCCC(=O)O)cc1 (racemic) [Example 55, (+/−)-3-(4-(1-(4-(1,5-dimethyl-1H-pyrazol-4-yl)phenoxy)butyl)benzamido)propanoic acid]
19 | 4370 | CCCC(Oc1ccc(-c2cn[nH]c2)cc1)c1ccc(C(=O)NCCC(=O)O)cc1 (racemic) [Example 56, (+/−)-3-(4-(1-(4-(1H-pyrazol-4-yl)phenoxy)butyl)benzamido)propanoic acid]
20 | 6100 | CCCC(Oc1ccc(-c2ccnn2C)cc1)c1ccc(C(=O)NCCC(=O)O)cc1 (racemic) [Example 57, (+/−)-3-(4-(1-(4-(1-methyl-1H-pyrazol-5-yl)phenoxy)butyl)benzamido)propanoic acid]
21 | 7300 | CCCC(Oc1ccc(-c2c(C)nn(C)c2C)cc1)c1ccc(C(=O)NCCC(=O)O)cc1 (racemic) [Example 58, (+/−)-3-(4-(1-(4-(1,3,5-trimethyl-1H-pyrazol-4-yl)phenoxy)butyl)benzamido)propanoic acid]
22 | 613 | CCCC(Nc1ccc(-n2cc(F)cn2)cc1)c1ccc(C(=O)NCCC(=O)O)cc1 (racemic) [Example 63, (+/−)-3-(4-(1-(4-(4-fluoro-1H-pyrazol-1-yl)phenylamino)butyl)benzamido)propanoic acid]
23 | 1910 | CCCC(Oc1ccc(-n2ccc(C(F)(F)F)n2)cc1)c1ccc(C(=O)NCCC(=O)O)cc1 (racemic) [Example 70, (+/−)-3-(4-(1-(4-(3-(trifluoromethyl)-1H-pyrazol-1-yl)phenoxy)butyl)benzamido)propanoic acid]
24 | 2120 | CC(C)(C)CC(Oc1ccc(-n2cc(C(F)(F)F)cn2)cc1)c1ccc(C(=O)NCCC(=O)O)cc1 (racemic) [Example 71, (+/−)-3-(4-(3,3-dimethyl-1-(4-(4-(trifluoromethyl)-1H-pyrazol-1-yl)phenoxy)butyl)benzamido)propanoic acid]
25 | 2300 | CCCC(Oc1ccc(-n2cc(C)c(C(F)(F)F)n2)cc1)c1ccc(C(=O)NCCC(=O)O)cc1 (racemic) [Example 72, (+/−)-3-(4-(1-(4-(4-methyl-3-(trifluoromethyl)-1H-pyrazol-1-yl)phenoxy)butyl)benzamido)propanoic acid]
26 | 2640 | CCCC(Oc1ccc(-n2cnc(C(F)(F)F)n2)cc1)c1ccc(C(=O)NCCC(=O)O)cc1 (racemic) [Example 73, (+/−)-3-(4-(1-(4-(3-(trifluoromethyl)-1H-1,2,4-triazol-1-yl)phenoxy)butyl)benzamido)propanoic acid]
27 | 7710 | CCCC(Oc1ccc(-n2cc(C(F)(F)F)nc2C)cc1)c1ccc(C(=O)NCCC(=O)O)cc1 (racemic) [Example 75, (+/−)-3-(4-(1-(4-(2-methyl-4-(trifluoromethyl)-1H-imidazol-1-yl)phenoxy)butyl)benzamido)propanoic acid]
28 | 9390 | CCCC(Oc1ccc(-n2cnc(C(F)(F)F)c2)nc1)c1ccc(C(=O)NCCC(=O)O)cc1 (racemic) [Example 87, (+/−)-3-(4-(1-(6-(4-(trifluoromethyl)-1H-imidazol-1-yl)pyridine-3-yloxy)butyl)benzamido)propanoic acid]
29 | > 2500 | CCCC(Oc1ccc(-n2cc3c(n2)CCC3)cc1)c1ccc(C(=O)NCCC(=O)O)cc1 (racemic) [Example 90, (+/−)-3-(4-(1-(4-(5,6-dihydrocyclopenta[c]pyrazol-2(4H)-yl)phenoxy)butyl)benzamido)propanoic acid]
30 | 75 | CCCC(Oc1ccc(-n2cc(-c3ccccc3)cn2)nc1)c1ccc(C(=O)NCCC(=O)O)cc1 (stereo not drawn) [Example 133]
